Experimental data published in patent publication US20210346378A1, “METHOD TO PREVENT AND TREAT ALOPECIA BY CALCIUM CHANNEL BLOCKERS, ANGIOTENSIN CONVERTING ENZYME INHIBITORS, AND ANGIOTENSIN RECEPTOR BLOCKERS” (priority 2019, published 2021).
Read-outs that look alike come from different tables or passages of the source.

Legend:
alopecia [1] = assay: composition directly applied to the scalp on one side of the head, other side left untreated; type: in vivo, human
Text: (§1) patient one is diagnosed with alopecia. A composition comprising the calcium channel blocker nifedipine is directly applied to the scalp on one side of the head while the other side is left untreated. […] patient one is diagnosed with alopecia. A composition comprising the ACE inhibitor enalapril is directly applied to the scalp on one side of the head while the other side is left untreated. […] patient one is diagnosed with alopecia. A composition comprising the angiotensin receptor blocker losartan is directly applied to the scalp on one side of the head while the other side is left untreated. […] patient two is diagnosed with alopecia. A composition comprising the calcium channel blocker nifedipine is directly applied to the scalp on one side of the head while the other side is left untreated. […] patient two is diagnosed with alopecia. A composition comprising the ACE inhibitor enalapril is directly applied to the scalp on one side of the head while the other side is left untreated. […] patient two is diagnosed with alopecia. A composition comprising the angiotensin receptor blocker losartan is directly applied to the scalp on one side of the head while the other side is left untreated.

alopecia [2] = assay: composition directly injected into the scalp on one side of the head, other side left untreated; type: in vivo, human
Text: as §1, with “injected into” for “applied to”, “the” for “the other”

androgenic alopecia = settings: cited from earlier work
female pattern hair loss = settings: women, facial hair growth during treatment; cited from earlier work

SMILES | symptoms of alopecia, treated side versus untreated side (alopecia [1]; patient one) | symptoms of alopecia, treated side versus untreated side (alopecia [1]; patient two) | symptoms of alopecia, treated side versus untreated side (alopecia [2]; patient one) | symptoms of alopecia, treated side versus untreated side (alopecia [2]; patient two) | hair count higher than baseline as compared to placebo (androgenic alopecia; after 4 years) [%] | hair count higher than baseline as compared to placebo (androgenic alopecia; after one year of treatment) [%] | time for facial hair growth side effect to resolve (female pattern hair loss)
CCCCc1nc(Cl)c(CO)n1Cc1ccc(-c2ccccc2-c2nn[nH]n2)cc1 [losartan] | reduced symptoms of alopecia | reduced symptoms of alopecia | reduced symptoms of alopecia | reduced symptoms of alopecia | – | – | –
CC(C)(C)NC(=O)[C@H]1CC[C@H]2[C@@H]3CC[C@H]4NC(=O)C=C[C@]4(C)[C@H]3CC[C@]12C [Finasteride] | – | – | – | – | 24.3 | 9.42 | –
Nc1cc(N2CCCCC2)nc(N)[n+]1[O-] [Minoxidil] | – | – | – | – | – | – | at least 4 months
CCOC(=O)[C@H](CCc1ccccc1)N[C@@H](C)C(=O)N1CCC[C@H]1C(=O)O [enalapril] | reduced symptoms of alopecia | reduced symptoms of alopecia | reduced symptoms of alopecia | reduced symptoms of alopecia | – | – | –
